Experiments:
Details in all cases: 48 h
SEM cells [1] = assay: cell viability relative to DMSO control; higher = less cytotoxic
In short: (§1)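 Viability, reported as a per-plate percentage of DMSO wells with cell-free wells as background, came from CellTiter-Glo One luminescence. Reading took place after 48 h at 37°C. Before that, NOMO1 or SEM (500 cells/well) or P12-Ichikawa (1000 cells/well) leukemia cells, adapted for at least four passages in each medium, were seeded in 1536-well plates (5 μl) and pin-dosed with library compounds in DMSO, 47 μM to 0.79 nM over 11 threefold points.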

NOMO1 = assay: AUC of viability dose-response curve (% viability x log10 dose units); higher = less sensitive
In short: (§2)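 Leukemia cells adapted to each medium were seeded in 1536-well plates (500 or 1000 cells/well) and given library compounds in DMSO for 48 h at 37°C. The 11 threefold doses spanned 47 μM to 0.79 nM, and CellTiter-Glo One luminescence was normalised per plate to DMSO and cell-free wells before four-parameter log-logistic fitting on log10 dose. Area under the curve was integrated with the trapezoidal rule, scaling curves above full viability and removing curves that failed quality control.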

P12-Ichikawa [2] = assay: as above
In short: as §2

SEM cells [3] = assay: as above
In short: as §2

P12-Ichikawa [4] = assay: cell viability relative to DMSO control; higher = less cytotoxic
In short: as §1

O=C(OCC#CCSc1nnc(-c2cccc3ccccc23)o1)c1cc2ccccc2s1
SEM cells [1], HPLM + 10% dialyzed FBS
Details	cell viability [%]
0.000781 µM	119
0.00234 µM	122
0.00702 µM	121
0.0211 µM	124
0.0632 µM	42.3
0.19 µM	132
0.569 µM	130
1.71 µM	115
5.12 µM	71.7
15.4 µM	128
46.1 µM	113

AUC of viability dose-response curve
Details	HPLM + 10% dialyzed FBS	RPMI 5 mM glucose + 10% FBS	RPMI 5 mM glucose + 10% dialyzed FBS
NOMO1	431	443	455
P12-Ichikawa [2]	451	444	468

C[C@@H]1C[C@H]2[C@@H]3\C=C(C)/C4=C/C5=C(C[C@]4(C)[C@H]3[C@@H](O)C[C@]2(C)[C@@]1(O)C(=O)CO)C=N[N]5C6=CC=CC=C6
SEM cells [1], HPLM + 10% dialyzed FBS
Details	cell viability [%]
0.000781 µM	143
0.00234 µM	123
0.00702 µM	112
0.0211 µM	109
0.0632 µM	101
0.19 µM	71.2
0.569 µM	66.9
1.71 µM	64.9
5.12 µM	72.3
15.4 µM	57.7
46.1 µM	36.4

AUC of viability dose-response curve
Details	NOMO1	P12-Ichikawa [2]	SEM cells [3]
HPLM + 10% dialyzed FBS	425	308	296
RPMI 5 mM glucose + 10% FBS	446	280	300
RPMI 5 mM glucose + 10% dialyzed FBS	461	246	267

C[S+](=O)([O-])CCNCc1ccc(-c2ccc3ncnc(Nc4ccc(OCc5cccc(F)c5)c(Cl)c4)c3c2)o1
AUC of viability dose-response curve
Details	NOMO1	P12-Ichikawa [2]	SEM cells [3]
HPLM + 10% dialyzed FBS	456	448	442
RPMI 5 mM glucose + 10% FBS	451	453	418
RPMI 5 mM glucose + 10% dialyzed FBS	444	429	440

NC(=O)c1ccc2[nH]c(-c3ccc(Oc4ccc(Cl)cc4)cc3)nc2c1
SEM cells [1], HPLM + 10% dialyzed FBS
Details	cell viability [%]
0.000781 µM	115
0.00234 µM	113
0.00702 µM	136
0.0211 µM	121
0.0632 µM	117
0.19 µM	65.4
0.569 µM	133
1.71 µM	124
5.12 µM	134
15.4 µM	118
46.1 µM	91.9

AUC of viability dose-response curve
Details	NOMO1	P12-Ichikawa [2]	SEM cells [3]
HPLM + 10% dialyzed FBS	457	463	470
RPMI 5 mM glucose + 10% FBS	472	454	446
RPMI 5 mM glucose + 10% dialyzed FBS	475	453	463

CN(C)C(=O)C(CCN1CCC(O)(c2ccc(Cl)cc2)CC1)(c1ccccc1)c1ccccc1
cell viability [%]
Details	P12-Ichikawa [4]	SEM cells [1]
HPLM + 10% dialyzed FBS, 0.000781 µM	122	68.1
HPLM + 10% dialyzed FBS, 0.00234 µM	123	109
HPLM + 10% dialyzed FBS, 0.00702 µM	133	117
HPLM + 10% dialyzed FBS, 0.0211 µM	122	130
HPLM + 10% dialyzed FBS, 0.0632 µM	129	127
HPLM + 10% dialyzed FBS, 0.19 µM	125	121
HPLM + 10% dialyzed FBS, 0.569 µM	127	122
HPLM + 10% dialyzed FBS, 1.71 µM	116	117
HPLM + 10% dialyzed FBS, 5.12 µM	127	108
HPLM + 10% dialyzed FBS, 15.4 µM	107	86.6
HPLM + 10% dialyzed FBS, 46.1 µM	69.2	23.5
RPMI 5 mM glucose + 10% FBS, 0.000781 µM	–	57.8
RPMI 5 mM glucose + 10% FBS, 0.00234 µM	–	108
RPMI 5 mM glucose + 10% FBS, 0.00702 µM	–	141
RPMI 5 mM glucose + 10% FBS, 0.0211 µM	–	127
RPMI 5 mM glucose + 10% FBS, 0.0632 µM	–	114
RPMI 5 mM glucose + 10% FBS, 0.19 µM	–	127
RPMI 5 mM glucose + 10% FBS, 0.569 µM	–	140
RPMI 5 mM glucose + 10% FBS, 1.71 µM	–	117
RPMI 5 mM glucose + 10% FBS, 5.12 µM	–	110
RPMI 5 mM glucose + 10% FBS, 15.4 µM	–	75.5
RPMI 5 mM glucose + 10% FBS, 46.1 µM	–	10.3

AUC of viability dose-response curve
Details	NOMO1	P12-Ichikawa [2]	SEM cells [3]
HPLM + 10% dialyzed FBS	448	460	445
RPMI 5 mM glucose + 10% FBS	445	444	436
RPMI 5 mM glucose + 10% dialyzed FBS	436	444	449

O=C(O)CCCc1c[nH]c2ccccc12
SEM cells [1], HPLM + 10% dialyzed FBS
Details	cell viability [%]
0.000781 µM	111
0.00234 µM	122
0.00702 µM	130
0.0211 µM	144
0.0632 µM	105
0.19 µM	113
0.569 µM	102
1.71 µM	124
5.12 µM	138
15.4 µM	131
46.1 µM	97.9

AUC of viability dose-response curve
Details	HPLM + 10% dialyzed FBS	RPMI 5 mM glucose + 10% FBS	RPMI 5 mM glucose + 10% dialyzed FBS
P12-Ichikawa [2]	468	431	452
SEM cells [3]	468	441	431

C[C@]12CC(=O)[C@H]3[C@@H](CC\C4=C\C(=O)\C=C/[C@]34C)[C@@H]1CC[C@]2(O)C(=O)CO
AUC of viability dose-response curve
Details	NOMO1	P12-Ichikawa [2]	SEM cells [3]
HPLM + 10% dialyzed FBS	472	458	470
RPMI 5 mM glucose + 10% FBS	461	461	457
RPMI 5 mM glucose + 10% dialyzed FBS	471	438	469

COc1ccccc1N1CCN(CCN(C(=O)C2CCCCC2)c2ccccn2)CC1
cell viability [%], SEM cells [1]
Details	HPLM + 10% dialyzed FBS	RPMI 5 mM glucose + 10% FBS
0.000781 µM	97.9	104
0.00234 µM	121	111
0.00702 µM	122	131
0.0211 µM	112	123
0.0632 µM	122	124
0.19 µM	120	135
0.569 µM	137	132
1.71 µM	133	131
5.12 µM	127	130
15.4 µM	122	111
46.1 µM	122	126

AUC of viability dose-response curve
Details	NOMO1	P12-Ichikawa [2]	SEM cells [3]
HPLM + 10% dialyzed FBS	466	470	468
RPMI 5 mM glucose + 10% FBS	469	472	467
RPMI 5 mM glucose + 10% dialyzed FBS	468	473	472

CN(C)c1cc(NC(=O)CNC(C)(C)C)c(O)c2c1C[C@H]1C[C@H]3[C@H](N(C)C)C(O)=C(C(N)=O)C(=O)[C@@]3(O)C(O)=C1C2=O
AUC of viability dose-response curve
Details	NOMO1	P12-Ichikawa [2]	SEM cells [3]
HPLM + 10% dialyzed FBS	466	457	452
RPMI 5 mM glucose + 10% FBS	471	470	453
RPMI 5 mM glucose + 10% dialyzed FBS	457	454	436

COC(=O)N1CC2(CC2)C[C@H](C(=O)NO)[C@H]1C(=O)N1CCN(c2ccccc2)CC1
cell viability [%]
Details	P12-Ichikawa [4]	SEM cells [1]
HPLM + 10% dialyzed FBS, 0.000781 µM	122	110
HPLM + 10% dialyzed FBS, 0.00234 µM	133	128
HPLM + 10% dialyzed FBS, 0.00702 µM	119	123
HPLM + 10% dialyzed FBS, 0.0211 µM	125	116
HPLM + 10% dialyzed FBS, 0.0632 µM	117	128
HPLM + 10% dialyzed FBS, 0.19 µM	114	121
HPLM + 10% dialyzed FBS, 0.569 µM	24.5	113
HPLM + 10% dialyzed FBS, 1.71 µM	30.1	40.3
HPLM + 10% dialyzed FBS, 5.12 µM	16.7	19.8
HPLM + 10% dialyzed FBS, 15.4 µM	10.6	16.5
HPLM + 10% dialyzed FBS, 46.1 µM	7.08	6.78
RPMI 5 mM glucose + 10% FBS, 0.000781 µM	121	–
RPMI 5 mM glucose + 10% FBS, 0.00234 µM	132	–
RPMI 5 mM glucose + 10% FBS, 0.00702 µM	119	–
RPMI 5 mM glucose + 10% FBS, 0.0211 µM	129	–
RPMI 5 mM glucose + 10% FBS, 0.0632 µM	136	–
RPMI 5 mM glucose + 10% FBS, 0.19 µM	143	–
RPMI 5 mM glucose + 10% FBS, 0.569 µM	122	–
RPMI 5 mM glucose + 10% FBS, 1.71 µM	99.6	–
RPMI 5 mM glucose + 10% FBS, 5.12 µM	14.2	–
RPMI 5 mM glucose + 10% FBS, 15.4 µM	9.97	–
RPMI 5 mM glucose + 10% FBS, 46.1 µM	7.58	–

AUC of viability dose-response curve
Details	HPLM + 10% dialyzed FBS	RPMI 5 mM glucose + 10% FBS	RPMI 5 mM glucose + 10% dialyzed FBS
NOMO1	297	310	373
P12-Ichikawa [2]	290	357	324

Source: the supplement of paper PMC11451515
